Results on 35 compounds are retold here after US7858349B2, “Anti-cancer compounds” (The Regents of the University of Colorado, priority 1999, dated 2010).

Like-named read-outs stand apart in the source and are kept apart here. A value given as a limit tells only on which side of the number the result lay.

One assay relates to SCLC strain SHP-77. Kind of assay: MTT assay for cell survival, SCLC SHP-77 in vitro. In kind it is cell-based, human. To be noted: ED50 for killing of SCLC strain SHP-77 in vitro, 4 days, 0 = no detectable activity.
In the next assay the test system is PC3 PC cells. Kind of assay: Inhibition of PC3 tumor growth in vivo in nude mice. More on the design: species or system athymic nude mice; key to PC3 In vivo % inhib.: an IC50 value of “0” represents no detectable anti-cancer activity for a drug in a given cell line; “Stim.” indicates the observation of a stimulatory activity on the growth of the cancer cell line. To be noted: percent inhibition of tumor growth in nude mice; prostate cancer; i.p. 5 mg/kg/every second day or 10 mg/kg/every fourth day. The method, then:
Compounds having high in vitro cytotoxic activity were tested against implanted tumors in vivo. Athymic nude mice were implanted subcutaneously with suspensions (2 million SHP-77 SCLC cells, 1 million A549 NSCLC cells or 1.5 million PC3 PC cells) in Matrigel suspension. On the eighth day after tumor implantation groups of 5 mice bearing implants were injected intraperitoneally with the compounds being tested at 5 mg/kg/every second day or at 10 mg/kg/every fourth day; control animals were injected with an equal volume of isotonic saline. Less soluble compounds were initially dissolved in dimethyl sulfoxide (DMSO) and diluted with medium. In those cases the control injections contained the same concentration of DMSO. Tumor size was measured with a caliper three times per week. Tumor volume was calculated by the formula: Volume(cc)=3.14×(length)×(width)^2/6 At autopsy tumors were removed and weighed. Tumor inhibition was calculated on both weight and measurement basis. In each Table, an IC50 value of “0” represents no detectable anti-cancer activity for a drug in a given cell line and “Stim.” indicates the observation of a stimulatory activity on the growth of the cancer cell line.

Turning to `Cc1ccc(CSC(C)(C)C(NC(=O)C=Cc2cc(F)cc(F)c2F)C(=O)NC2CC(C)(C)NC(C)(C)C2)cc1` (stereo not shown) [Analog M-1502, F3c-Pen(Mbzl)-Atmp], the IC50 in the assay on SCLC strain SHP-77 (read-out: SCLC SHP-77 IC50) turned out to be 3.4 µM. Also, the “PC3 In vivo % inhib.” value in the assay on PC3 PC cells was determined as 11%.
Taken in the same sequence, the figures for `CC1(C)CC(NC(=O)C(Cc2ccc(OCc3c(Cl)cccc3Cl)cc2)NC(=O)COc2c(F)c(F)c(F)c(F)c2F)CC(C)(C)N1` (stereo not shown) [Analog M-1358, F5po-OC2Y-Atmp] were 4.1 µM and 30%.
In the case of `CC1(C)CC(NC(=O)[C@H](Cc2ccc(OCc3c(Cl)cccc3Cl)cc2)NCc2c(F)c(F)c(F)c(F)c2F)CC(C)(C)N1` [Analog M-1594, F5b-OC2Y-Atmp], the IC50 in the assay with SCLC strain SHP-77 (read-out: SCLC SHP-77 IC50) worked out at 3.1 µM. Also, the “PC3 In vivo % inhib.” value in the assay on PC3 PC cells is listed as 20%.
The matching figures for `COc1ccc2c(c1)c(CC(=O)NC(Cc1ccc(OCc3c(Cl)cccc3Cl)cc1)C(=O)NC1CN3CCC1CC3)c(C)n2C(=O)c1ccc(Cl)cc1` [Analog M-1588, Indo-OC2Y-(R)-Aqu]: 3.9 µM and 8%.
Taken in the same sequence, the figures for `CC1(C)CC(NC(=O)C(Cc2ccc(OCc3c(Cl)cccc3Cl)cc2)NC(=O)C2(c3ccc(Cl)cc3)CC2)CC(C)(C)N1` (stereo not shown) [Analog M-1422, Cpcpc-OC2Y-Atmp] were 13 µM and 31%.
Taken in the same sequence, the figures for `CC1(C)CC(NC(=O)[C@H](Cc2ccc(OCc3c(Cl)cccc3Cl)cc2)NCC=C(c2ccccc2)c2ccccc2)CC(C)(C)N1` [Analog M-1600, Pcnl-OC2Y-Atmp] were 4.1 µM and 44%.
For `CC1(C)CC(NC(=O)[C@@H](Cc2ccc(OCc3c(Cl)cccc3Cl)cc2)NC(=O)/C=C/c2c(F)c(F)c(F)c(F)c2F)CC(C)(C)N1` [Analog M-1108, F5c-D-OC2Y-Atmp], the IC50 with SCLC strain SHP-77 (read-out: SHP-77 In vitro IC50) is > 60 µM. Besides, the “PC3 In vivo % inhib.” value in the assay with PC3 PC cells is 46%.
Regarding `CC1(C)CC(NC(=O)C(Cc2ccc(OCc3c(Cl)cccc3Cl)cc2)NC(=O)C2CCc3ccccc3C2)CC(C)(C)N1` (stereo not shown) [Analog M-1440, Th2n-OC2Y-Atmp], the IC50 in the assay with SCLC strain SHP-77 (read-out: SCLC SHP-77 IC50) is 3.5 µM. Also, the “PC3 In vivo % inhib.” value with PC3 PC cells is listed as 15%.
With `O=C(C=Cc1c(F)c(F)c(F)c(F)c1F)NC(Cc1ccc(-c2ccccc2)cc1)C(=O)N1CCN(c2ccccn2)CC1` (stereo not shown) [Analog M-1258, F5c-Bip-Pypz], the IC50 in the assay with SCLC strain SHP-77 (read-out: SHP-77 In vitro IC50) was found to be 48 µM. For the same compound, the “PC3 In vivo % inhib.” value in the assay on PC3 PC cells is reported as 10%.
In the case of `Cc1onc(-c2ccccc2Cl)c1C(=O)N[C@@H](Cc1ccc(OCc2c(Cl)cccc2Cl)cc1)C(=O)NC1CC(C)(C)NC(C)(C)C1` [Analog M-1568, Cmioc-OC2Y-Atmp], in the assay on SCLC strain SHP-77 (read-out: SCLC SHP-77 IC50), the IC50 was determined as 3.6 µM. Moreover, the “PC3 In vivo % inhib.” value in the assay with PC3 PC cells is “Stim”.
On to `CC1(C)CC(NC(=O)C(Cc2ccc(OCc3c(Cl)cccc3Cl)cc2)NC(=O)c2ccc(-c3ccccc3)cc2)CC(C)(C)N1` (stereo not shown) [Analog M-1542, 4Bpc-OC2Y-Atmp], for which the IC50 in the assay on SCLC strain SHP-77 (read-out: SCLC SHP-77 IC50) came out at 6.4 µM. In addition, the “PC3 In vivo % inhib.” value with PC3 PC cells is “Stim”.
For the compound `O=C(N[C@@H]1CN2CCC1CC2)C(Cc1ccc(OCc2c(Cl)cccc2Cl)cc1)NC(=O)C(c1ccccc1)C1CCCCC1` (single isomer, unassigned) [M-1550 #2], the concentration for half-maximal inhibition (IC50) in the assay on SCLC strain SHP-77 (read-out: SCLC SHP-77 IC50) amounted to 4 µM. Further, the “PC3 In vivo % inhib.” value in the assay with PC3 PC cells is reported as “Stim”.
`CC1(C)CC(NC(=O)C(Cc2ccc(OCc3c(Cl)cccc3Cl)cc2)NC(=O)C2=CN3CCC2CC3)CC(C)(C)N1` (stereo not shown) [Analog M-1396, Dhq-OC2Y-Atmp]: the IC50 in the assay with SCLC strain SHP-77 (read-out: SCLC SHP-77 IC50) is 15 µM. Further, the “PC3 In vivo % inhib.” value in the assay on PC3 PC cells was 9%.
The matching figures for `COc1ccc2c(c1)c(CC(=O)N[C@H](Cc1ccc(OCc3c(Cl)cccc3Cl)cc1)C(=O)NC1CC(C)(C)NC(C)(C)C1)c(C)n2C(=O)c1ccc(Cl)cc1` [Analog M-1586, Indo-D-OC2Y-Atmp]: 1.7 µM and 38%.
Taken in the same sequence, the figures for `COc1cc(C(=O)NC(Cc2ccc(OCc3c(Cl)cccc3Cl)cc2)C(=O)NC2CC(C)(C)NC(C)(C)C2)cc(OC)c1OC` (stereo not shown) [Analog M-1408, 3,4,5Tmb-OC2Y-Atmp] were 8 µM and “Stim”.
Taken in the same sequence, the figures for `CC1(C)CC(NC(=O)C(Cc2ccc(OCc3c(Cl)cccc3Cl)cc2)NC(=O)C=Cc2ccc(C=O)cc2)CC(C)(C)N1` (stereo not shown) [Analog M-1456, Fcin-OC2Y-Atmp] were 4 µM and 17%.
Regarding `CCCCCC=CC(=O)NC(Cc1ccc(OCc2c(Cl)cccc2Cl)cc1)C(=O)NC1CC(C)(C)NC(C)(C)C1` (stereo not shown) [Analog M-1412, 2Octe-OC2Y-Atmp], in the assay on SCLC strain SHP-77 (read-out: SCLC SHP-77 IC50), the IC50 worked out at 12 µM. In addition, the “PC3 In vivo % inhib.” value with PC3 PC cells turned out to be 38%.
The matching figures for `CC1(C)CC(NC(=O)[C@H](Cc2ccc(C#N)cc2)NC(=O)C(C)(c2ccccc2)c2ccccc2)CC(C)(C)N1` [Analog M-1512, 22Dp-PCNF-Atmp]: 22 µM and 48%.
Turning to `CC1(C)CC(NC(=O)C(Cc2ccc(Br)cc2)NC(=O)C=Cc2c(F)c(F)c(F)c(F)c2F)CC(C)(C)N1` (stereo not shown) [Analog M-1144, F5c-PBF-Atmp], the IC50 with SCLC strain SHP-77 (read-out: SHP-77 In vitro IC50) was 7.2 µM. Moreover, the “PC3 In vivo % inhib.” value in the assay with PC3 PC cells was 20%.
Consider `CC1(C)CC(NC(=O)C(Cc2ccc(OCc3c(Cl)cccc3Cl)cc2)NC(=O)c2c(F)c(N)cc(F)c2F)CC(C)(C)N1` (stereo not shown) [Analog M-1420, Atfb-OC2Y-Atmp], for which the half-maximal inhibitory concentration (IC50) in the assay on SCLC strain SHP-77 (read-out: SCLC SHP-77 IC50) was determined as 12 µM. In the assay with PC3 PC cells, the “PC3 In vivo % inhib.” value was “Stim”.
Taken in the same sequence, the figures for `CC1(C)CC(NC(=O)[C@H](Cc2ccc(OCc3c(Cl)cccc3Cl)cc2)NCc2cnc3ccccc3c2)CC(C)(C)N1` [Analog M-1604, 3Qum-OC2Y-Atmp] were 7.4 µM and “Stim”.
The matching figures for `CC1(C)CC(NC(=O)C(Cc2ccc(OCc3c(Cl)cccc3Cl)cc2)NC(=O)C2CSC(=O)N2)CC(C)(C)N1` (stereo not shown) [Analog M-1630, Otac-OC2Y-Atmp]: 60 µM and 71%.
Take `CC1(C)CC(NC(=O)C(Cc2ccc(OCc3c(Cl)cccc3Cl)cc2)NC(=O)C=Cc2ccc3c(c2)OCO3)CC(C)(C)N1` (stereo not shown) [Analog M-1414, 34Mdc-OC2Y-Atmp]: the half-maximal inhibitory concentration (IC50) in the assay with SCLC strain SHP-77 (read-out: SCLC SHP-77 IC50) stood at 7.1 µM. The “PC3 In vivo % inhib.” value in the assay on PC3 PC cells is listed as “Stim”.
The matching figures for `CC1(C)CC(NC(=O)[C@H](Cc2ccc(OCc3c(Cl)cccc3Cl)cc2)NC(=O)c2ccc(N)cc2O)CC(C)(C)N1` [Analog M-1592, Pas-OC2Y-Atmp]: 7.2 µM and “Stim”.
On to `CC1(C)CC(NC(=O)[C@H](Cc2ccc(OCc3c(Cl)cccc3Cl)cc2)NC(=O)c2ccc3c(c2)C(=O)c2ccccc2C3=O)CC(C)(C)N1` [Analog M-1618, Aq2c-OC2Y-Atmp], for which the IC50 in the assay with SCLC strain SHP-77 (read-out: SCLC SHP-77 IC50) amounted to 2.2 µM. The “PC3 In vivo % inhib.” value in the assay with PC3 PC cells worked out at 10%.
Taken in the same sequence, the figures for `CC1(C)CC(NC(=O)C(Cc2ccc(OCc3c(Cl)cccc3Cl)cc2)NC(=O)C2C(C)(C)C2(C)C)CC(C)(C)N1` (stereo not shown) [Analog M-1406, Tmcc-OC2Y-Atmp] were 5.3 µM and 25%.
Take `CC1(C)CC(NC(=O)C(Cc2c(F)c(F)c(F)c(F)c2F)NC(=O)C=Cc2c(F)c(F)c(F)c(F)c2F)CC(C)(C)N1` (stereo not shown) [Analog M-1054, F5c-F5F-Atmp]: the concentration for half-maximal inhibition (IC50) with SCLC strain SHP-77 (read-out: SHP-77 In vitro IC50) stood at 4.6 µM. Besides, the “PC3 In vivo % inhib.” value in the assay with PC3 PC cells came to 47%.
Take `C=CCN1C(C)CN(C(=O)C(Cc2ccc(OCc3c(Cl)cccc3Cl)cc2)NC(=O)C=Cc2c(F)c(F)c(F)c(F)c2F)CC1C` (stereo not shown) [Analog M-1614, F5c-OC2Y-cDmap]: the IC50 in the assay on SCLC strain SHP-77 (read-out: SCLC SHP-77 IC50) is 2 µM. Moreover, the “PC3 In vivo % inhib.” value with PC3 PC cells came to 54%.
Taken in the same sequence, the figures for `Cc1ccc(CSC(C)(C)C(NC(=O)c2cnccn2)C(=O)NC2CC(C)(C)NC(C)(C)C2)cc1` (stereo not shown) [Analog M-1522, 2Pyz-Pen(Mbzl)-Atmp] were 31 µM and “Stim”.
Taken in the same sequence, the figures for `CC1(C)CC(NC(=O)C(Cc2ccc(OCc3c(Cl)cccc3Cl)cc2)NC(=O)C(=Cc2ccccc2)c2ccccc2)CC(C)(C)N1` (stereo not shown) [Analog M-1400, Pcn-OC2Y-Atmp] were 1.3 µM and “Stim”.
As for `O=C(C=Cc1c(F)c(F)c(F)c(F)c1F)NC(Cc1ccc(F)cc1)C(=O)NC1CCN(Cc2ccccc2)CC1` (stereo not shown) [Analog M-1156, F5c-PFF-Abzp], in the assay with SCLC strain SHP-77 (read-out: SHP-77 In vitro IC50), the IC50 amounted to 7.5 µM. Further, the “PC3 In vivo % inhib.” value in the assay on PC3 PC cells was found to be 56%.
For `O=C(/C=C/c1c(F)c(F)c(F)c(F)c1F)N[C@@H](Cc1ccc(OCc2c(Cl)cccc2Cl)cc1)C(=O)NCc1nc2ccccc2[nH]1` [Analog M-1624, F5c-OC2Y-Ambi], the IC50 in the assay with SCLC strain SHP-77 (read-out: SCLC SHP-77 IC50) turned out to be 50 µM. Besides, the “PC3 In vivo % inhib.” value in the assay with PC3 PC cells was determined as 68%.
The matching figures for `Cc1ccc(CSC(C)(C)C(NC(=O)C=Cc2c(F)c(F)c(F)c(F)c2F)C(=O)NC2CC(C)(C)NC(C)(C)C2)cc1` (stereo not shown) [Analog M-1430, F5c-Pen(Mbzl)-Atmp]: 6.1 µM and 50%.
The matching figures for `CC1(C)CC(NC(=O)C(Cc2ccc(OCc3c(Cl)cccc3Cl)cc2)NC(=O)CC2Cc3ccccc3C2)CC(C)(C)N1` (stereo not shown) [Analog M-1448, 2Ina-OC2Y-Atmp]: 13 µM and 11%.
Taken in the same sequence, the figures for `COc1ccc2c(c1)c(CC(=O)NC(Cc1ccc(OCc3c(Cl)cccc3Cl)cc1)C(=O)N1CC(C)N(Cc3ccccc3)C(C)C1)c(C)n2C(=O)c1ccc(Cl)cc1` (stereo not shown) [Analog M-1560, Indo-OC2Y-cDmbp] were > 60 µM and “Stim”.
